The labels stand for the following.
B1: EE2-8-18: anti-ethynyl estradiol monoclonal antibody from mouse hybridoma EE2-8-18 line (antibody, V domains shown)
VH: VQVKESGPGLVAPSQSLSISCTVSGFPLTSYGVQWVRQPPGKGLEWLGVIWPGGSTNYNSALMSRLSISKDNSKSQVFLKMNSLQTDDTAMYYCAGWFQTGPRLFAYWGQGTLVTVSA
VL: DIQMTQSPASLSASVGETVTITCRASENIHSYLAWYQQKQGKSPQVLVYNAKTLGEGVSSRFSGSGSGTQFSLKINSLQPEDFGTYYCQNHYGSPWTFGGGTKLESK
modifications: Mouse
notes: anti-ethynyl estradiol monoclonal antibody from mouse hybridoma EE2-8-18 line
B2: EE2-3: anti-ethynyl estradiol monoclonal antibody from mouse hybridoma EE2-3 line (antibody)
VH: VTLKXSGPGILQPSQTLSLTCSFSGFSLSTSDLGVSWIRQTSGKGLEWLAHIYWNDDKYYNPSLKSRLTISKDTSGNLVFLRITSVDTDDSATYYCARSPLYGSLTYWGQGTLVTVSA
light: DIVMSQSPSSLAVSVGEKVTLNCKSSQSLLNSRTRKNYLAWYQQKPGQSPKLLISWASTRESGVPDRFTGSGSGTDFTLTISSVQAEDLAVYYCNQFYYLLTFGAGTKLELKRADAAPTVSIFPPSSEQLTSGGASVVCFLNNFYPKDINVKWKIDGSERQNGVLNSWTDQDSKDSTYSMSSTLTLTKDEYERHNSYTCEATHKTSTSPIVKSFNRNE
modifications: Mouse; (5)..(5) Xaa = unknown for each location where they appear
notes: anti-ethynyl estradiol monoclonal antibody from mouse hybridoma EE2-3 line

One data set concerns purified anti-estrogen polyclonal antibody. Nature of the data set: Cross reactivity of purified anti-estrogen polyclonal antibody. Type of data set: binding, rabbit. The conditions noted are these: assuming E2=100%. The protocol:
In the E3-16G-KLH-immunized rabbits, third immunization (immunization number 3) led to an equilibrium of antibody titer, and 168 mg of purified anti-estrogen polyclonal antibody was obtained from one rabbit.
On to `Oc1ccc(Cl)cc1Cl` [2,4-Dichlorophenol (2,4DCP), 2,4-Dichlorophenol], for which the Cross reactivity is less than 0.02%.
Still for that read-out and setting: with `C[C@]12CC[C@@H]3c4ccc(O)cc4CC[C@H]3[C@@H]1CC[C@@H]2O` [17β-Estradiol (E2), 17β-Estradiol] the figure was 100%; with `CC(C)(c1ccc(O)cc1)c1ccc(O)cc1` [Bisphenol A (BPA), Bisphenol A], less than 0.02%; with `CCCCC(CC)COC(=O)c1ccccc1C(=O)OCC(CC)CCCC` (stereo not drawn) [Diethylhexyl phthalate (DEHP), Diethylhexyl phthalate], less than 0.02%.
As for `C[C@]12CC[C@@H]3c4ccc(O)cc4CC[C@H]3[C@@H]1C[C@@H](O)[C@@H]2O` [Estriol (E3), Estriol], the Cross reactivity turned out to be 69%.
Same read-out and setting: with `C#C[C@]1(O)CC[C@H]2[C@@H]3CCc4cc(O)ccc4[C@H]3CC[C@@]21C` [Ethynylestradiol (EE2), Ethynylestradiol] the figure was 7%.
The same measure, in the same setting: the same measure for “Nonylphenol ethoxylate [Nonylphenol ethoxylate (NP10EO)]”: less than 0.02%; for t-Nonylphenol [t-Nonylphenol (NP)]: less than 0.02%.

In another data set the test system is purified anti-resin plasticizer antibody. As to the kind of experiment: Cross reactivity of purified anti-resin plasticizer antibody. Type of data set: binding, rabbit. Particulars: assuming DBP=100%.
Consider `CCCCOC(=O)c1ccccc1C(=O)OCCCC` [Dibutyl phthalate], for which the Cross reactivity was 100%.
Take `O=C(OC1CCCCC1)c1ccccc1C(=O)OC1CCCCC1` [Dicyclohexyl phthalate]: the Cross reactivity was less than 1%.
Still for that read-out and setting: the same measure for `CCOC(=O)c1ccccc1C(=O)OCC` [Diethyl phthalate]: 7%; for `CCCCC(CC)COC(=O)CCCCC(=O)OCC(CC)CCCC` (stereo not drawn) [Diethylhexyl adipate]: less than 1%; for `CCCCC(CC)COC(=O)c1ccccc1C(=O)OCC(CC)CCCC` (stereo not drawn) [Diethylhexyl phthalate (DEHP), Diethylhexyl phthalate]: less than 1%.
Same read-out and setting: with `CCCCCCOC(=O)c1ccccc1C(=O)OCCCCCC` [Dihexyl phthalate] the figure was 4%; with `CC(C)CCCCCCOC(=O)c1ccccc1C(=O)OCCCCCCC(C)C` [Diisononyl phthalate], less than 1%; with `CCCCCOC(=O)c1ccccc1C(=O)OCCCCC` [Dipentyl phthalate], 10%.
`CCCOC(=O)c1ccccc1C(=O)OCCC` [Dipropyl phthalate] had a Cross reactivity of 27%.

Another data set concerns purified anti-resin component antibody. Nature of the data set: Cross reactivity of purified anti-resin component antibody. Type of data set: binding, rabbit. Particulars: assuming BPA=100%. The protocol: Also, even in the BPA-2-KLH-immunized rabbits, sixth immunization (immunization number 6) led to an equilibrium of antibody titer, and 178 mg of purified anti-resin component antibody was obtained from one rabbit. When assuming BPA=100% for this purified antibody, cross reactivity was as shown in Table 12; as specificity for BPA was high, it was proven that BPA only can be specifically concentrated or cleaned up.
`CC(O)(Cc1ccc(O)cc1)c1ccc(O)cc1` (stereo not drawn) [1,2-Bis(4-hydroxyphenyl)-2-propanol]: the Cross reactivity is reported as less than 0.4%.
The same measure, in the same setting: the same measure for `CC(CO)(c1ccc(O)cc1)c1ccc(O)cc1` [2,2′-Bis(4-hydroxyphenyl)-1-propanol]: 9.3%; for `CC(CCC(=O)O)(c1ccc(O)cc1)c1ccc(O)cc1` [4,4′-Bis(p-hydroxyphenyl)pentanoic acid]: less than 0.4%.
The same measure, in the same setting: with `Oc1ccc(Oc2ccc(O)cc2)cc1` [4,4′-Dihydroxydiphenyl ether] the figure was less than 0.4%; with `CC(=O)Oc1ccc(C(C)(C)c2ccc(OC(C)=O)cc2)cc1` [BPA diacetate], 11.1%.
The same measure, in the same setting: with `CC(C)(c1ccc(OCC2CO2)cc1)c1ccc(OCC2CO2)cc1` (stereo not drawn) [BPA diglycidyl ether] the figure was less than 0.4%.
As for `C=C(C)C(=O)Oc1ccc(C(C)(C)c2ccc(OC(=O)C(=C)C)cc2)cc1` [BPA dimethacrylate], the Cross reactivity is 2.7%.
In turn, `Oc1ccc(Cc2ccc(O)cc2)cc1` [Bis(p-hydroxyphenyl)methane] yielded a Cross reactivity of 1.0%.
Take `O=S(=O)(c1ccc(OCCO)cc1)c1ccc(OCCO)cc1` [Bis[4-(2-hydroxyethoxy)phenyl]sulfone]: the Cross reactivity is given as less than 0.4%.
In turn, `CC(C)(c1ccc(O)cc1)c1ccc(O)cc1` [Bisphenol A (BPA), Bisphenol A] had a Cross reactivity of 100%.
On the same count and under the same terms, the same measure for `CCC(C)(c1ccc(O)cc1)c1ccc(O)cc1` [Bisphenol B (BPB), Bisphenol B]: 22.5%; for `CC(c1ccc(O)cc1)c1ccc(O)cc1` [Bisphenol E (BPE), Bisphenol E]: 6.6%.
Regarding `O=S(=O)(c1ccc(O)cc1)c1ccc(O)cc1` [Bisphenol S (BPS), Bisphenol S], the Cross reactivity is recorded as less than 0.4%.
Still for that read-out and setting: the same measure for `O=C(c1ccc(O)cc1)c1ccc(O)cc1` [p,p′-Dihydroxybenzophenone]: less than 0.4%.

Tested on in a further data set: not listed separately
As to the kind of experiment: Resistance of monoclonal antibody to a detergent. More on the design: species or system mouse. Particulars: compared with antibody from EE2-277 line.
Consider B1, for which the “resistance to a detergent of the antibody” value was “slightly lower than that of one from EE2-277 line”.
On the same count and under the same terms, with B2 the entry was “the same as that of one from EE2-277 line”.

The values are drawn from patent US20060216761A1, “Isolation material for hormone disrupting substance, method of concentrating and method of clean-up” (priority 2002, published 2006).
